The text below walks through data of PubChem BioAssay (NCI).

Some test systems named below: SR leukemia; SNB-19 CNS; SK-MEL-5 melanoma; MALME-3M melanoma; TK-10 renal; HOP-92 NSCLC; SN12C renal; HOP-62 NSCLC; MDA-MB-231 breast; SF-295 CNS.
What all share (assay): inhibition of tumour cell growth, NCI panel, 48 h

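Interpolation was linear, between the two tested concentrations surrounding the appropriate level; five concentrations were tested over 48 hours in 96-well plates. Here, GI50 denotes the concentration required for 50% inhibition of growth. Definition used: TGI = concentration required for complete inhibition of growth.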 A value given as a limit tells only on which side of the number the result lay.

Regarding `O=C(OC[C@@H]1CO1)c1cccc2c(=O)c3ccccc3[nH]c12`, the GI50 in the test with SR leukemia was 0.0604 µM; in the test with SNB-19 CNS it was 0.505 µM; in the test on SK-MEL-5 melanoma it was 0.21 µM; with MALME-3M melanoma it was 0.472 µM; in the test on TK-10 renal, 0.646 µM; in the test on HOP-92 NSCLC, 0.444 µM. For the same compound, the GI50 was 0.196 µM in the test with SN12C renal, 0.357 µM with HOP-62 NSCLC, 0.393 µM with MDA-MB-231 breast and 0.432 µM in the test on SF-295 CNS. In addition, the TGI in the test on SNB-19 CNS turned out to be 5.51 µM; with SK-MEL-5 melanoma it was 0.473 µM; with MALME-3M melanoma, 1.76 µM; with HOP-92 NSCLC, 5.02 µM; with SN12C renal, 1.41 µM; in the test on HOP-62 NSCLC, 3.45 µM. The TGI with MDA-MB-231 breast is 2.29 µM; with SF-295 CNS, 2.5 µM.
For `COc1c(O)c2c3c(c1OC)-c1ccccc1CC3N(S(=O)(=O)c1ccc(C)cc1)CC2` (stereo not drawn), the GI50 was 1.36 µM with SR leukemia; 3.29 µM in the test on SNB-19 CNS; 1.77 µM in the test with SK-MEL-5 melanoma; 7.88 µM in the test on MALME-3M melanoma; 7.96 µM in the test with TK-10 renal; 1.41 µM with HOP-92 NSCLC. Besides, the GI50 with SN12C renal is 2.59 µM; in the test on HOP-62 NSCLC, 2.77 µM; with MDA-MB-231 breast, 2.01 µM; with SF-295 CNS it was 2.07 µM. Further, the TGI is 7.09 µM with SR leukemia; over 50 µM with SNB-19 CNS; over 50 µM in the test with SK-MEL-5 melanoma; over 50 µM in the test on MALME-3M melanoma; over 50 µM in the test with TK-10 renal; 29 µM with HOP-92 NSCLC. Besides, the TGI with SN12C renal is over 50 µM; with HOP-62 NSCLC, over 50 µM; in the test on MDA-MB-231 breast, over 50 µM; with SF-295 CNS it was 30.6 µM.
For the compound `CN(C)c1ccc(C2CC(C)(O)Oc3cc4c(cc32)OCO4)cc1` (stereo not drawn), the TGI with SR leukemia, with SNB-19 CNS, in the test with SK-MEL-5 melanoma, in the test on MALME-3M melanoma, in the test with TK-10 renal and in the test on HOP-92 NSCLC was over 100 µM throughout. In addition, the TGI with SN12C renal, with HOP-62 NSCLC, in the test with MDA-MB-231 breast and in the test with SF-295 CNS was over 100 µM in each case.
Take `COC(=O)c1ccc2[nH]c(O)c(C(=Nc3ccc(N(C)C(=O)CN4CCN(C)CC4)cc3)c3ccccc3)c2c1`: the GI50 in the test on SR leukemia is 0.224 µM; with SNB-19 CNS, 2.95 µM; in the test on SK-MEL-5 melanoma, 1.35 µM; in the test on MALME-3M melanoma it was 1.43 µM; with TK-10 renal, 3.05 µM; in the test on HOP-92 NSCLC, 9.78 µM. Also, the GI50 in the test with SN12C renal was 0.267 µM; in the test with HOP-62 NSCLC, 2.1 µM; with MDA-MB-231 breast, 1.28 µM; in the test on SF-295 CNS it was 6.34 µM. For the same compound, the TGI in the test on SR leukemia amounted to 10.2 µM; with SNB-19 CNS it was 8.33 µM; with SK-MEL-5 melanoma it was 2.69 µM; with MALME-3M melanoma, 2.86 µM; with TK-10 renal, 17 µM; in the test on HOP-92 NSCLC it was 39.7 µM. Also, the TGI is 11.6 µM in the test on SN12C renal, 13 µM in the test on HOP-62 NSCLC, 3.17 µM with MDA-MB-231 breast and 21 µM in the test on SF-295 CNS.
As for `Fc1ccc(-c2nn3c(COc4ccc(Cl)cc4)nnc3s2)cc1Oc1ccccc1`, the GI50 is over 100 µM with SR leukemia; 30.2 µM with SNB-19 CNS; 18.2 µM in the test with SK-MEL-5 melanoma; 29 µM in the test with MALME-3M melanoma; 13.8 µM in the test on TK-10 renal; 10.1 µM with HOP-92 NSCLC. Further, the GI50 is over 46.1 µM with SN12C renal, 16.6 µM with HOP-62 NSCLC, 16.4 µM in the test on MDA-MB-231 breast and 15.2 µM in the test on SF-295 CNS. In addition, the TGI with SR leukemia was over 100 µM; with SNB-19 CNS it was over 58.5 µM; in the test with SK-MEL-5 melanoma, 41.5 µM; in the test on MALME-3M melanoma, 67.4 µM; with TK-10 renal it was 30.3 µM; in the test with HOP-92 NSCLC, 21.7 µM. For the same compound, the TGI in the test with SN12C renal is over 67 µM; in the test with HOP-62 NSCLC, 35.6 µM; in the test with MDA-MB-231 breast it was 35.8 µM; in the test on SF-295 CNS, 33.5 µM.
Regarding `CC1=C2[C@@H](CC1)[C@]1(C)O[C@@](C3CC3)(C[C@H]1OC(=O)CO)[C@H]2OC(=O)/C=C/c1ccccc1`, the GI50 in the test on SR leukemia is 13.5 µM; in the test with SNB-19 CNS it was 17.6 µM; in the test with SK-MEL-5 melanoma, 16.7 µM; in the test on MALME-3M melanoma, 15.6 µM; in the test with TK-10 renal, 18.7 µM; with HOP-92 NSCLC, 13.4 µM. The GI50 is 0.736 µM with SN12C renal, 15.4 µM in the test on HOP-62 NSCLC, 18.3 µM in the test with MDA-MB-231 breast and 16.1 µM in the test with SF-295 CNS. Further, the TGI in the test with SR leukemia was 39.2 µM; in the test with SNB-19 CNS, 35.6 µM; with SK-MEL-5 melanoma it was 30.5 µM; with MALME-3M melanoma it was 32.8 µM; with TK-10 renal, 33.8 µM; with HOP-92 NSCLC it was 26.7 µM. For the same compound, the TGI in the test on SN12C renal came out at 25.4 µM; in the test with HOP-62 NSCLC, 30.2 µM; in the test on MDA-MB-231 breast, 37.6 µM; with SF-295 CNS it was 30.1 µM.
